What was measured:
[1] = system: human microsomal proteins; experiment: Stable isotope (GSH/GSX) trapping of reactive metabolites in microsomal incubation, LC-MS/MS neutral loss scanning of 129 Da; type: in vitro ADME; settings: 10 μM test compound, 1 mg/mL human microsomal proteins, 1 mM GSH and GSX (1:1), NADPH generating system, 60 min, 37° C., pH 7.4
Procedure: All microsomal incubations described herein were performed at 37° C. in a water bath. […] Alternatively, the reaction mixtures were subjected to liquid-liquid extractions to recover the metabolites from supernatants.
MS analyses were performed on a Micromass (Manchester, UK) Quattro Micro triple quadrupole mass spectrometer.
For complete profiling of reactive metabolites, samples were first subjected to chromatographic separations with an Agilent 1100 HPLC system with an auto-sampler (Agilent Technologies, Palo Alto, Calif.), and eluents were introduced to the Quattro Micro triple quadrupole mass spectrometer operated in the neutral loss scanning mode. An Agilent Zorbax SB C18 column (2.1×50 mm) was used for the chromatographic separation. […] At 7 min, the column was flushed with 95% acetonitrile for 2 min before re-equilibration at initial conditions. […] Data were processed using the Masslynx version 4.0 software from Micromass.

[2] = system: human microsomal proteins; experiment: Stable isotope (GSH/GSX) trapping of reactive metabolites in microsomal incubation, FIA-MS/MS neutral loss scanning of 129 Da; type: in vitro ADME; settings: 10 μM test compound, 1 mg/mL human microsomal proteins, 1 mM GSH and GSX (1:1), 60 min, 37° C.; flow injection FIA-MS/MS, analysis within 30 sec
Procedure: All microsomal incubations described herein were performed at 37° C. in a water bath. The test compound (or drug candidate) was mixed with human microsomal proteins in 50 mM potassium phosphate buffer (pH 7.4) supplemented with GSH and GSX that were pre-mixed at an equal molar ratio of 1:1. Reaction mixtures were then warmed at 37° C. for 5 min. The reactions were initiated by the addition of a NADPH generating system to yield a final volume of 1000 μL. The final reaction mixtures contained 10 μM test compounds, 1 mg/mL microsomal proteins, 1 mM GSH and GSX, 1.3 mM NADP^+, 3.3 mM glucose-6-phosphate, 0.4 U/ml glucose-6-phosphate dehydrogenase, 3.3 mM magnesium chloride. After a 60 min incubation, the reactions were terminated by the addition of 150 μL of trichloroacetic acid (10%). The samples were centrifuged at 10,000 g for 15 min at 4° C. to pellet the precipitated protein, and the supernatants were subjected to solid-phase extractions. […]
For rapid screening of reactive metabolites (as described in Example 11), cleaned samples were directly injected to the mass spectrometer that was operated in the neutral scanning mode. […] After a glutathione conjugate was detected, CID MS/MS spectrum was subsequently acquired to determine the structure of the glutathione conjugate. […]

| Structure (SMILES) | detection of reactive metabolites (characteristic isotopic doublet of GSH/GSX adducts in neutral loss mass spectrum) [1] | detection of reactive metabolite (characteristic isotopic doublet of GSH/GSX adducts in neutral loss mass spectrum) [2] |
| --- | --- | --- |
| NC(=O)OCC(COC(N)=O)c1ccccc1 [Felbamate] | no reactive metabolites were formed |  |
| C[C@]12CC[C@@H]3c4ccc(O)c(O)c4CC[C@H]3[C@@H]1CCC2=O [4-Hydroxyestrone] | only one component at a retention time of 5.11 min displayed characteristic doublet | the reactive metabolite was detected |
| O=C(O)Cc1ccccc1Nc1c(Cl)cccc1Cl [Diclofenac] | two reactive metabolites were co-eluted |  |

Source: US7445909B2, “Method for detecting reactive metabolites using a combination of glutathione and a stable isotopic derivative of glutathione and mass spectroscopy-based pattern recognition” (Janssen Phamaceutica N.V., priority 2004, dated 2008)
